pIC50: −log10 of the molar value.
System: 253994-281-T-J1-PDC KRAS-mutant spheroids with HUVEC/MSC, viability
Assay: Anticancer human tumor 253994-281-T-J1-PDC patient-derived colorectal carcinoma cell line growth inhibition [KRAS2]
Settings: for pIC50: curve of first compound; for viability, T/C: stronger effect = lower value
How it was run: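 KRAS-mutant tumor cells were grown as spheroids with HUVEC endothelial cells and human MSCs as stroma. Targeted agents were tested alone and with KRAS pathway inhibitors. Doses started at or near clinical Cmax, or 10 microM, descending half-log.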

[1] = second compound 0.1 µM, first compound 0.0316 µM
[2] = second compound 0.1 µM, first compound 0.1 µM
[3] = second compound 0.1 µM, first compound 0.316 µM
[4] = second compound 0.1 µM, first compound 1 µM
[5] = second compound 0.1 µM, first compound 3.16 µM
[6] = second compound 0.1 µM, first compound 10 µM
[7] = second compound 0.316 µM, first compound 0.0316 µM
[8] = second compound 0.316 µM, first compound 0.1 µM
[9] = second compound 0.316 µM, first compound 0.316 µM
[10] = second compound 0.316 µM, first compound 1 µM
[11] = second compound 0.316 µM, first compound 3.16 µM
[12] = second compound 0.316 µM, first compound 10 µM
[13] = second compound 1 µM, first compound 0.0316 µM
[14] = second compound 1 µM, first compound 0.1 µM
[15] = second compound 1 µM, first compound 0.316 µM
[16] = second compound 1 µM, first compound 1 µM
[17] = second compound 1 µM, first compound 3.16 µM
[18] = second compound 1 µM, first compound 10 µM
[19] = second compound 3.16 µM, first compound 0.0316 µM
[20] = second compound 3.16 µM, first compound 0.1 µM
[21] = second compound 3.16 µM, first compound 0.316 µM
[22] = second compound 3.16 µM, first compound 1 µM
[23] = second compound 3.16 µM, first compound 3.16 µM
[24] = second compound 3.16 µM, first compound 10 µM
[25] = second compound 10 µM, first compound 0.0316 µM
[26] = second compound 10 µM, first compound 0.1 µM
[27] = second compound 10 µM, first compound 0.316 µM
[28] = second compound 10 µM, first compound 1 µM
[29] = second compound 10 µM, first compound 3.16 µM
[30] = second compound 10 µM, first compound 10 µM
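Note: spheroids exposed to agents for seven days before readout.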
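Throughout, for viability, T/C: percent of DMSO vehicle control viability.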

Compound | pIC50 (second compound 0.1 µM) | pIC50 (second compound 0.316 µM) | pIC50 (second compound 1 µM) | pIC50 (second compound 3.16 µM) | pIC50 (second compound 10 µM) | viability, T/C [1] | viability, T/C [2] | viability, T/C [3] | viability, T/C [4] | viability, T/C [5] | viability, T/C [6] | viability, T/C [7] | viability, T/C [8] | viability, T/C [9] | viability, T/C [10] | viability, T/C [11] | viability, T/C [12] | viability, T/C [13] | viability, T/C [14] | viability, T/C [15] | further results
COC(=O)c1ccc2c(C(=Nc3ccc(N(C)C(=O)CN4CCN(C)CC4)cc3)c3ccccc3)c(O)[nH]c2c1 + CNCc1ccccc1-c1csc(C(C)Nc2nc(C)nc3cc(OC)c(OC)cc23)c1 | 5.18 | 5.39 | 5.34 | > 7.50 | > 7.50 | 90.3% | 97.4% | 73.2% | 89.3% | 77% | 35.2% | 99.1% | 74.1% | 80.8% | 83.8% | 61.7% | 10.7% | 82.6% | 75% | 77.3% | viability, T/C [16]: 70.8%; viability, T/C [17]: 72.3%; viability, T/C [18]: 0.33%; viability, T/C [19]: 20.7%; viability, T/C [20]: 23.6%; viability, T/C [21]: 3.7%; viability, T/C [22]: 1.12%; viability, T/C [23]: 0.36%; viability, T/C [24]: 0.17%; viability, T/C [25]: 0.14%; viability, T/C [26]: 0.16%; viability, T/C [27]: 0.15%; viability, T/C [28]: 0.22%; viability, T/C [29]: 0.12%; viability, T/C [30]: 0.17%
COc1cc(Nc2ncc3c(n2)-c2ccc(Cl)cc2C(c2c(F)cccc2OC)=NC3)ccc1C(=O)O + CNCc1ccccc1-c1csc(C(C)Nc2nc(C)nc3cc(OC)c(OC)cc23)c1 | 7.40 | > 7.50 | > 7.50 | > 7.50 | > 7.50 | 54.1% | 28.8% | 25.6% | 31.4% | 30.5% | 45% | 49.7% | 31.7% | 28.5% | 30.3% | 39.5% | 33.5% | 39.1% | 25.6% | 25.1% | viability, T/C [16]: 30%; viability, T/C [17]: 26.2%; viability, T/C [18]: 30.9%; viability, T/C [19]: 9.35%; viability, T/C [20]: 1.45%; viability, T/C [21]: 1.32%; viability, T/C [22]: 0.29%; viability, T/C [23]: 4.67%; viability, T/C [24]: 15.5%; viability, T/C [25]: 0.14%; viability, T/C [26]: 0.15%; viability, T/C [27]: 0.15%; viability, T/C [28]: 0.14%; viability, T/C [29]: 0.15%; viability, T/C [30]: 0.18%
COc1cc2nccc(Oc3ccc(NC(=O)C4(C(=O)Nc5ccc(F)cc5)CC4)cc3)c2cc1OC + CNCc1ccccc1-c1csc(C(C)Nc2nc(C)nc3cc(OC)c(OC)cc23)c1 | < 5.00 | 5.28 | 5.46 | > 7.50 | > 7.50 | 99.4% | 99.1% | 83.8% | 85% | 94.5% | 61.1% | 98.2% | 92% | 84.9% | 96.6% | 68% | 28% | 93.3% | 87.4% | 85.1% | viability, T/C [16]: 85.7%; viability, T/C [17]: 53.9%; viability, T/C [18]: 5.85%; viability, T/C [19]: 43.2%; viability, T/C [20]: 45.6%; viability, T/C [21]: 49.7%; viability, T/C [22]: 25%; viability, T/C [23]: 12.3%; viability, T/C [24]: 0.16%; viability, T/C [25]: 0.13%; viability, T/C [26]: 0.14%; viability, T/C [27]: 0.13%; viability, T/C [28]: 0.13%; viability, T/C [29]: 0.29%; viability, T/C [30]: 0.16%

Reference: PubChem BioAssay AID1963874 (Molecular Pharmacology Branch, DTP, NCI, 2024)
